According to ChEMBL document CHEMBL1201862, “PubChem BioAssay data set” (2004):
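Cells were grown in 96-well plates and exposed to each compound for 48 hours at five concentrations; endpoints were interpolated linearly between bracketing concentrations, or set to the highest concentration if not reached. Abbreviation: GI50, concentration required for 50% inhibition of growth.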 Active and inactive are the calls of the source. No stated cut-off is given here; in the data, active = GI50 up to about 1.1 µM and inactive = higher.

Tests used:
Experiment in all cases: growth of human tumour cells (NCI), 48 h
Malme-3M = test system: Malme-3M
SF-295 = test system: SF-295
SK-MEL-28 = test system: SK-MEL-28
A498 = test system: A498
COLO 205 = test system: COLO 205
OVCAR-3 = test system: OVCAR-3
SW-620 = test system: SW-620
T47D = test system: T47D
SF-268 = test system: SF-268
MDA-MB-435 = test system: MDA-MB-435
IGROV-1 = test system: IGROV-1
SNB-75 = test system: SNB-75
CAKI-1 = test system: CAKI-1
NCI-H522 = test system: NCI-H522
UACC-62 = test system: UACC-62
LOX IMVI = test system: LOX IMVI
UACC-257 = test system: UACC-257
NCI-H226 = test system: NCI-H226
Hs-578T = test system: Hs-578T
K562 = test system: K562
NCI-H23 = test system: NCI-H23
HOP-62 = test system: HOP-62
SF-539 = test system: SF-539
SK-OV-3 = test system: SK-OV-3
SNB-19 = test system: SNB-19
MCF7 = test system: MCF7
KM12 = test system: KM12
786-0 = test system: 786-0
OVCAR-5 = test system: OVCAR-5
RXF 393 = test system: RXF 393
SN12C = test system: SN12C
RPMI-8226 = test system: RPMI-8226
PC-3 = test system: PC-3
NCI/ADR-RES = test system: NCI/ADR-RES
OVCAR-8 = test system: OVCAR-8
EKVX = test system: EKVX
HOP-92 = test system: HOP-92
OVCAR-4 = test system: OVCAR-4
HT-29 = test system: HT-29
ACHN = test system: ACHN
MDA-MB-231 = test system: MDA-MB-231
A549 = test system: A549
UO-31 = test system: UO-31
CCRF-CEM = test system: CCRF-CEM
BT-549 = test system: BT-549
SR = test system: SR
MDA-N = test system: MDA-N
NCI-H460 = test system: NCI-H460
TK-10 = test system: TK-10
SK-MEL-2 = test system: SK-MEL-2
SK-MEL-5 = test system: SK-MEL-5
HCT-15 = test system: HCT-15
HCT-116 = test system: HCT-116
DU-145 = test system: DU-145
M14 = test system: M14
MOLT-4 = test system: MOLT-4
HL-60 = test system: HL-60
U-251 = test system: U-251
HCC 2998 = test system: HCC 2998

O=C(O)CNC(=O)c1ccccc1O [SALICYLURIC ACID]
GI50 (Malme-3M): > 100 µM (inactive)
GI50 (SF-295): > 100 µM (inactive)
GI50 (SK-MEL-28): > 100 µM (inactive)
GI50 (A498): > 100 µM (inactive)
GI50 (COLO 205): > 100 µM (inactive)
GI50 (OVCAR-3): > 100 µM (inactive)
GI50 (SW-620): > 100 µM (inactive)
GI50 (T47D): > 100 µM (inactive)
GI50 (SF-268): > 100 µM (inactive)
GI50 (MDA-MB-435): > 100 µM (inactive)
GI50 (IGROV-1): > 100 µM (inactive)
GI50 (SNB-75): > 100 µM (inactive)
GI50 (CAKI-1): > 100 µM (inactive)
GI50 (NCI-H522): > 100 µM (inactive)
GI50 (UACC-62): > 100 µM (inactive)
GI50 (LOX IMVI): > 100 µM (inactive)
GI50 (UACC-257): > 100 µM (inactive)
GI50 (NCI-H226): > 100 µM (inactive)
GI50 (Hs-578T): > 100 µM (inactive)
GI50 (K562): > 100 µM (inactive)
GI50 (NCI-H23): > 100 µM (inactive)
GI50 (HOP-62): > 100 µM (inactive)
GI50 (SF-539): > 100 µM (inactive)
GI50 (SK-OV-3): > 100 µM (inactive)
GI50 (SNB-19): > 100 µM (inactive)
GI50 (MCF7): > 100 µM (inactive)
GI50 (KM12): > 100 µM (inactive)
GI50 (786-0): > 100 µM (inactive)
GI50 (OVCAR-5): > 100 µM (inactive)
GI50 (RXF 393): > 100 µM (inactive)
GI50 (SN12C): > 100 µM (inactive)
GI50 (RPMI-8226): > 100 µM (inactive)
GI50 (PC-3): > 100 µM (inactive)
GI50 (NCI/ADR-RES): > 100 µM (inactive)
GI50 (OVCAR-8): > 100 µM (inactive)
GI50 (EKVX): > 100 µM (inactive)
GI50 (HOP-92): > 100 µM (inactive)
GI50 (OVCAR-4): > 100 µM (inactive)
GI50 (HT-29): > 100 µM (inactive)
GI50 (ACHN): > 100 µM (inactive)
GI50 (MDA-MB-231): > 100 µM (inactive)
GI50 (A549): > 100 µM (inactive)
GI50 (UO-31): > 100 µM (inactive)
GI50 (CCRF-CEM): > 100 µM (inactive)
GI50 (BT-549): > 100 µM (inactive)
GI50 (SR): > 100 µM (inactive)
GI50 (MDA-N): > 100 µM (inactive)
GI50 (NCI-H460): > 100 µM (inactive)
GI50 (TK-10): > 100 µM (inactive)
GI50 (SK-MEL-2): > 100 µM (inactive)
GI50 (SK-MEL-5): > 100 µM (inactive)
GI50 (HCT-15): > 100 µM
GI50 (HCT-116): > 100 µM (inactive)
GI50 (DU-145): > 100 µM (inactive)
GI50 (M14): > 100 µM (inactive)
GI50 (MOLT-4): > 100 µM (inactive)
GI50 (HL-60): > 100 µM (inactive)
GI50 (U-251): > 100 µM (inactive)

Oc1ccc(Cc2nccc3cc(O)c(O)cc23)cc1O
GI50 (Malme-3M): > 100 µM (inactive)
GI50 (SF-295): 37.2 µM (inactive)
GI50 (SK-MEL-28): 79.8 µM (inactive)
GI50 (A498): 45 µM (inactive)
GI50 (COLO 205): 21.6 µM (inactive)
GI50 (OVCAR-3): 90.8 µM (inactive)
GI50 (SW-620): 36.1 µM (inactive)
GI50 (T47D): 30.4 µM (inactive)
GI50 (SF-268): 51.9 µM (inactive)
GI50 (MDA-MB-435): 51.3 µM (inactive)
GI50 (IGROV-1): 33 µM (inactive)
GI50 (SNB-75): 21 µM (inactive)
GI50 (CAKI-1): 58.3 µM (inactive)
GI50 (NCI-H522): 30.4 µM (inactive)
GI50 (UACC-62): 33.4 µM (inactive)
GI50 (LOX IMVI): 33.5 µM (inactive)
GI50 (UACC-257): 20.8 µM (inactive)
GI50 (NCI-H226): 46.2 µM (inactive)
GI50 (Hs-578T): > 100 µM (inactive)
GI50 (K562): 26.8 µM (inactive)
GI50 (NCI-H23): 38.1 µM (inactive)
GI50 (HOP-62): 47.4 µM (inactive)
GI50 (SF-539): 40.4 µM (inactive)
GI50 (SK-OV-3): 66.8 µM (inactive)
GI50 (SNB-19): 55.2 µM (inactive)
GI50 (MCF7): 21.5 µM (inactive)
GI50 (KM12): 67.3 µM (inactive)
GI50 (786-0): 32.1 µM (inactive)
GI50 (OVCAR-5): 48.9 µM (inactive)
GI50 (RXF 393): 37.6 µM (inactive)
GI50 (SN12C): 29.9 µM (inactive)
GI50 (RPMI-8226): 27.4 µM (inactive)
GI50 (PC-3): 52.6 µM (inactive)
GI50 (NCI/ADR-RES): > 100 µM (inactive)
GI50 (OVCAR-8): 45.7 µM (inactive)
GI50 (EKVX): 26.5 µM (inactive)
GI50 (HOP-92): 90.2 µM (inactive)
GI50 (OVCAR-4): 41.6 µM (inactive)
GI50 (HT-29): 53.5 µM (inactive)
GI50 (ACHN): 88.1 µM (inactive)
GI50 (MDA-MB-231): 97.1 µM (inactive)
GI50 (A549): 54.3 µM (inactive)
GI50 (UO-31): 40.6 µM (inactive)
GI50 (CCRF-CEM): 17.9 µM (inactive)
GI50 (BT-549): 54.3 µM (inactive)
GI50 (SR): 19.6 µM (inactive)
GI50 (MDA-N): 58.2 µM (inactive)
GI50 (NCI-H460): 29.6 µM (inactive)
GI50 (TK-10): 32.7 µM (inactive)
GI50 (SK-MEL-2): 49.7 µM (inactive)
GI50 (SK-MEL-5): 28.8 µM (inactive)
GI50 (HCT-15): 57.7 µM
GI50 (HCT-116): 17.7 µM (inactive)
GI50 (DU-145): 66.5 µM (inactive)
GI50 (M14): 26.6 µM (inactive)
GI50 (MOLT-4): 22.3 µM (inactive)
GI50 (HL-60): 26.3 µM (inactive)
GI50 (U-251): 37.9 µM (inactive)

COC(=O)/C=C(/C(=O)OC)c1c(C)c(C)c2c(C)cc(C)cc(C)c1-2
GI50 (Malme-3M): 28.4 µM (inactive)
GI50 (SF-295): 20.9 µM (inactive)
GI50 (SK-MEL-28): 33.1 µM (inactive)
GI50 (A498): 97.9 µM (inactive)
GI50 (COLO 205): 29.4 µM (inactive)
GI50 (OVCAR-3): 22.1 µM (inactive)
GI50 (SW-620): 17.1 µM (inactive)
GI50 (T47D): 80.9 µM (inactive)
GI50 (SF-268): > 100 µM (inactive)
GI50 (MDA-MB-435): 4.6 µM (inactive)
GI50 (IGROV-1): 37.9 µM (inactive)
GI50 (CAKI-1): 27.4 µM (inactive)
GI50 (NCI-H522): 12.2 µM (inactive)
GI50 (UACC-62): 8.39 µM (inactive)
GI50 (LOX IMVI): 28.7 µM (inactive)
GI50 (UACC-257): 22 µM (inactive)
GI50 (NCI-H226): 13.3 µM (inactive)
GI50 (Hs-578T): 8.99 µM (inactive)
GI50 (K562): > 100 µM (inactive)
GI50 (NCI-H23): 23.8 µM (inactive)
GI50 (HOP-62): 23 µM (inactive)
GI50 (SF-539): 29.4 µM (inactive)
GI50 (SK-OV-3): 18.2 µM (inactive)
GI50 (SNB-19): 58.7 µM (inactive)
GI50 (MCF7): 25.2 µM (inactive)
GI50 (KM12): 32.7 µM (inactive)
GI50 (786-0): > 100 µM (inactive)
GI50 (OVCAR-5): 19.1 µM (inactive)
GI50 (RXF 393): 26.9 µM (inactive)
GI50 (SN12C): 38.8 µM (inactive)
GI50 (RPMI-8226): > 100 µM (inactive)
GI50 (PC-3): 28.8 µM (inactive)
GI50 (NCI/ADR-RES): 15.2 µM (inactive)
GI50 (OVCAR-8): 46.3 µM (inactive)
GI50 (EKVX): 59.7 µM (inactive)
GI50 (HOP-92): 21.2 µM (inactive)
GI50 (OVCAR-4): 76.2 µM (inactive)
GI50 (HT-29): 11.6 µM (inactive)
GI50 (ACHN): 20 µM (inactive)
GI50 (HCC 2998): 21.3 µM (inactive)
GI50 (MDA-MB-231): 18.1 µM (inactive)
GI50 (A549): 20.6 µM (inactive)
GI50 (UO-31): 13.6 µM (inactive)
GI50 (CCRF-CEM): > 100 µM (inactive)
GI50 (BT-549): 22.4 µM (inactive)
GI50 (SR): 45.5 µM (inactive)
GI50 (MDA-N): 2.24 µM (inactive)
GI50 (NCI-H460): 29 µM (inactive)
GI50 (TK-10): 55.1 µM (inactive)
GI50 (SK-MEL-2): 26.2 µM (inactive)
GI50 (SK-MEL-5): 12.6 µM (inactive)
GI50 (HCT-15): 8.85 µM
GI50 (HCT-116): 17.4 µM (inactive)
GI50 (DU-145): 36.9 µM (inactive)
GI50 (M14): 8.93 µM (inactive)
GI50 (MOLT-4): > 100 µM (inactive)
GI50 (HL-60): > 100 µM (inactive)
GI50 (U-251): 26.9 µM (inactive)
